Measured values published in patent publication US20240262842A1, “SMALL MOLECULE INHIBITORS OF KRAS G12C MUTANT” (Merck Sharp & Dohme LLC, priority 2021, published 2024).

target: biotinylated KRAS G12C protein (GMP-PNP loaded) and GST-tagged Ras binding domain of c-RAF (Homo sapiens, UniProt P01116, C118S/C51S/C80L/G12C); experiment: RAS:RAF-RBD binding assay (TR-FRET); conditions: 30-minute incubation of compound with KRAS G12C before RAF-RBD; Table 4; read-out: IC50
Sequence (P01116 with tags, fused parts or gaps isoform P01116-2 G12C/C51S/C80L/C118S): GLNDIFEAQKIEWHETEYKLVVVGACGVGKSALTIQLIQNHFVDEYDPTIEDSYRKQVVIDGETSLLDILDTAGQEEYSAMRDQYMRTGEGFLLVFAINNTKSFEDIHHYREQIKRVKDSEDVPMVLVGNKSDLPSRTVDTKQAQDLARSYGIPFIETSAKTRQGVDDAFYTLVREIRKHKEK

In order of falling IC50:
1. Cc1nc2c3c(c(C(F)(F)F)cc2n1C)-c1cccn2c(C(=O)c4cc(F)c(NC(=O)/C=C/CN5C[C@H](O)[C@@H](F)C5)c(F)c4)cc(c12)CCO3 [Example 275, (3S,4S)-1-((E)-4-((4-(9,10-dimethyl-7-(trifluorometh-yl)-13,14-dihydro-9H-imidazo[4″,5″:5′,6′]benzo-[1′,2′:2,3]oxocino[4,5,6-hi]indolizine-2-carbonyl)-2,6-difluorophenyl)amino)-4-oxobut-2-en-1-yl)-3-fluoro-4-hydroxypyrrol-idin-1-ium 2,2,2-trifluoro-acetate]  57.5 nM
2. Cc1nc2c3c(c(C(F)(F)F)cc2n1C)-c1cccn2c(C(=O)c4cc(F)c(NC(=O)/C=C/CN5CC6(CCOCC6)C5)c(F)c4)cc(c12)CCO3 [Example 280, (E)-2-(4-((4-(9,10-dimeth-yl-7-(trifluoromethyl)-13,14-dihydro-9H-imidazo[4″,5″:5′,6′]benzo-[1′,2′:2,3]oxocino[4,5,6-hi]indolizine-2-carbonyl)-2,6-difluorophenyl)amino)-4-oxobut-2-en-1-yl)-7-oxa-2-azaspiro[3.5]nonan-2-ium 2,2,2-trifluoroacetate]  37.7 nM
3. Cc1nc2c3c(c(C(F)(F)F)cc2n1C)-c1cccn2c(C(=O)c4cc(F)c(NC(=O)/C=C/CNC5CC(F)(F)C5)c(F)c4)cc(c12)CCO3 [Example 277, (E)-N-(4-((4-(9,10-dimethyl-7-(trifluoro-methyl)-13,14-dihydro-9H-imidazo[4″,5″:5′,6′]-benzo[1′,2′:2,3]oxocino-[4,5,6-hi]indolizine-2-carbonyl)-2,6-difluoro-phenyl)amino)-4-oxobut-2-en-1-yl)-3,3-difluoro-cyclobutan-1-aminium 2,2,2-trifluoroacetate]  26.4 nM
4. Cc1nc2c3c(c(C(F)(F)F)cc2n1C)-c1cccn2c(C(=O)c4cc(F)c(NC(=O)/C=C/CN[C@@H]5CCCC(F)(F)[C@@H]5O)c(F)c4)cc(c12)CCO3 [Example 274]  20.4 nM
5. CO[C@@H]1CCCC[C@@H]1NC/C=C/C(=O)Nc1c(F)cc(C(=O)c2cc3c4c(cccn24)-c2c(C(F)(F)F)cc4c(nc(C)n4C)c2OCC3)cc1F [Example 266, (E)-N-(4-(9,10-dimethyl-7-(trifluoromethyl)-13,14-dihydro-9H-imidazo-[4″,5″:5′,6′]benzo[1′,2′: 2,3]oxocino[4,5,6-hi]-indolizine-2-carbonyl)-2,6-difluorophenyl)-4-(((1S,2R)-2-methoxy-cyclohexyl)amino)but-2-enamide]  16.1 nM
6. CO[C@H]1CCCC[C@H]1NC/C=C/C(=O)Nc1c(F)cc(C(=O)c2cc3c4c(cccn24)-c2c(C(F)(F)F)cc4c(nc(C)n4C)c2OCC3)cc1F [Example 268, (E)-N-(4-(9,10-dimethyl-7-(trifluoromethyl)-13,14-dihydro-9H-imidazo-[4″,5″:5′,6′]benzo[1′,2′: 2,3]oxocino[4,5,6-hi]-indolizine-2-carbonyl)-2,6-difluorophenyl)-4-(((1R,2S)-2-methoxy-cyclohexyl)amino)but-2-enamide]  12.8 nM
7. Cc1nc2c3c(c(C(F)(F)F)cc2n1C)-c1cccn2c(C(=O)c4cc(F)c(NC(=O)/C=C/CN[C@H]5CCCC[C@H]5O)c(F)c4)cc(c12)CCO3 [Example 265]  12.3 nM
8. Cc1nc2c3c(c(C(F)(F)F)cc2n1C)-c1cccn2c(C(=O)c4cc(F)c(NC(=O)/C=C/[C@@H]5C[C@@H](F)CN5)c(F)c4)cc(c12)CCO3 [Example 260, (2S,4R)-2-((E)-3-((4-(9,10-dimethyl-7-(tri-fluoromethyl)-13,14-dihydro-9H-imidazo-[4″,5″:5′,6′]benzo[1′,2′: 2,3]oxocino[4,5,6-hi]-indolizine-2-carbonyl)-2,6-difluorophenyl)-amino)-3-oxoprop-1-en-1-yl)-4-fluoropyrrolidin-1-ium 2,2,2-trifluoro-acetate]  11.7 nM
9. Cc1nc2c3c(c(C(F)(F)F)cc2n1C)-c1cccn2c(C(=O)c4cc(F)c(NC(=O)C=CCN5CC6CC5CO6)c(F)c4)cc(c12)CCO3 [Example 257, mono(2-(4-((E)-4-((1S,4S)-2-oxa-5-aza-bicyclo-[2.2.1]heptan-5-ium-5-yl)but-2-enamido)-3,5-difluorobenzoyl)-9,10-dimethyl-7-(trifluorometh-yl)-13,14-dihydro-9H-imidazo[4″,5″:5′,6′]benzo-[1′,2′:2,3]oxocino[4,5,6-hi]indolizin-11-ium) mono(2,2,2-trifluoro-acetate)]  9.69 nM
10. Cc1nc2c3c(c(C(F)(F)F)cc2n1C)-c1cccn2c(C(=O)c4cc(F)c(NC(=O)/C=C/CNCC5(F)CC5)c(F)c4)cc(c12)CCO3 [Example 276, (E)-4-((4-(9,10-dimethyl-7-(trifluoromethyl)-13,14-dihydro-9H-imidazo-[4″,5″:5′,6′]benzo[1′,2′: 2,3]oxocino[4,5,6-hi]-indolizine-2-carbonyl)-2,6-difluorophenyl)-amino)-N-((1-fluorocyclo-propyl)methyl)-4-oxobut-2-en-1-aminium 2,2,2-trifluoroacetate]  8.05 nM
11. Cc1nc2c3c(c(C(F)(F)F)cc2n1C)-c1cccn2c(C(=O)c4cc(F)c(NC(=O)/C=C/CN[C@@H]5CCCC[C@@H]5O)c(F)c4)cc(c12)CCO3 [Example 264]  7.34 nM
12. Cc1nc2c3c(c(C(F)(F)F)cc2n1C)-c1cccn2c(C(=O)c4cc(F)c(NC(=O)/C=C/CNCC5(CO)COC5)c(F)c4)cc(c12)CCO3 [Example 279, (E)-4-((4-(9,10-dimethyl-7-(trifluoromethyl)-13,14-dihydro-9H-imidazo-[4″,5″:5′,6′]benzo[1′,2′: 2,3]oxocino[4,5,6-hi]-indolizine-2-carbonyl)-2,6-difluorophenyl)amino)-N-((3-(hydroxymethyl)oxetan-3-yl)methyl)-4-oxobut-2-en-1-aminium 2,2,2-trifluoroacetate]  5.73 nM
13. Cc1nc2c3c(c(C(F)(F)F)cc2n1C)-c1cccn2c(C(=O)c4cc(F)c(NC(=O)/C=C/CNCC5(CO)CC5)c(F)c4)cc(c12)CCO3 [Example 281, (E)-4-((4-(9,10-dimethyl-7-(trifluoromethyl)-13,14-dihydro-9H-imidazo-[4″,5″:5′,6′]benzo[1′,2′: 2,3]oxocino[4,5,6-hi]-indolizine-2-carbonyl)-2,6-difluorophenyl)-amino)-N-((1-(hydroxy-methyl)cyclopropyl)meth-yl)-4-oxobut-2-en-1-aminium 2,2,2-trifluoro-acetate]  3.8 nM
14. Cc1nc2c3c(c(C(F)(F)F)cc2n1C)-c1cccn2c(C(=O)c4cc(F)c(NC(=O)/C=C/CNC5(C)CCOCC5)c(F)c4)cc(c12)CCO3 [Example 267, mono((E)-2-(3,5-difluoro-4-(4-((4-methyltetrahydro-2H-pyran-4-yl)ammonio)-but-2-enamido)benzoyl)-9,10-dimethyl-7-(trifluoro-methyl)-13,14-dihydro-9H-imidazo[4″,5″:5′,6′]-benzo[1′,2′:2,3]oxocino-[4,5,6-hi]indolizin-11-ium)mono(2,2,2-trifluoro-acetate)]  3.69 nM

same assay, conditions: IC50, 30-minute incubation of compound with KRAS G12C before RAF-RBD; Table 4

With CO[C@H]1CC[C@H](NC/C=C/C(=O)Nc2ccc(C(=O)c3cn4c5c(cccc35)-c3c(C(F)(F)F)cc5c(nc(C)n5C)c3OCC4)cc2)CC1 [Example 263, mono(2-(4-((E)-4-(((1r, 4r)-4-methoxycyclohexyl)-ammonio)but-2-enamido)-benzoyl)-8,9-dimethyl-6-(trifluoromethyl)-12,13-dihydro-8H-imidazo-[4″,5″:3′,4′]benzo[1′,2′: 7,8][1,4]oxazocino[6,5,4-hi]indol-10-ium) mono-(2,2,2-trifluoroacetate)] the IC50 was 9.25 nM.
